Columns and labels:
LD50 of the cyanine dye = format: in vivo
[1] = tested on: IFN-γ production by immunocompetent cells (spleen cells); test: Effect of cyanine dye on IFN-γ production (ex vivo: oral dosing of mice, spleen cells cultured with lipopolysaccharide, ELISA); format: in vivo, BALB/c female mice; details: for IFN-γ Production: once a day over three days, spleen cells 1×10^6 cells/ml, 5 μg/ml lipopolysaccharide, 72 hours
Experimental: The following explains the effect of the cyanine dyes on INF-γ production by immunocompetent cells based on ex vivo experiment using mice as an experimental animal.
(§1) Twenty-five of 10-week-old BALB/c female mice were divided into five groups. A powder consisting of one part by weight of “NK-4”, a cyanine dye represented by Chemical Formula 1 produced by Hayashibara Biochemical Laboratories, Inc., Okayama, Japan, and 200 parts by weight of sodium bicarbonate was prepared. Then, the mixture was dissolved in physiological saline to give a concentration of 20 mg/ml. Successively, the solution was diluted to give different concentrations as indicated in Table 1 with 20 mg/ml of sodium bicarbonate aqueous solution for administration to the mice. The dilutions were orally administered to the mice in four groups once a day over three days.
Spleens were respectively extracted from the mice in each group, minced and suspended in a usual manner in the art to give the spleen cell suspension. The cell suspensions were collected and diluted in RPMI medium (pH 7.2), supplemented with 10% (v/v) calf serum […] and containing 10 mM HEPES (N-2-hydroxyethylpiperadine-N′-2-ethanesulfonic acid) and 5 μg/ml lipopolysaccharide, to give a concentration of 1×10^6 cells/ml, and were cultured at 37° C. for 72 hours. IFN-γ was measured by conventional enzyme-linked immunosorbent assay (ELISA). As a control, the mice of the group with no cyanine dye were treated similarly as above. The measured values of IFN-γ were converted into international units (IU) with reference to the standard mouse IFN-γ (Gg02-901-533) obtained form National institute of Health, U.S.A., as an IFN-γ standard.

mice = test: Observation of the mice administered with the cyanine dye (death, condition, side effects); format: in vivo
Experimental: as §1

| Structure (SMILES) | LD50 (LD50 of the cyanine dye; intraperitoneal administration) | LD50 (LD50 of the cyanine dye; oral administration) | IFN-γ Production ([1]; dose 1 μg/kg body weight) | IFN-γ Production ([1]; dose 10 μg/kg body weight) | IFN-γ Production ([1]; dose 100 μg/kg body weight) | IFN-γ production relative to that of the control group ([1]; dose 1,000 μg/kg body weight, control 0.4 IU/ml) | IFN-γ Production ([1]; dose 1,000 μg/kg body weight) | Serious side effect such as symptom of poisoning (mice; directly applied to living bodies) | Condition of mice (hair complexion, appetite, motility) (mice; mouse, in vivo, po) | Death of mice (mice; oral, 1 to 1,000 μg/kg body weight, once a day over three days) |
| --- | --- | --- | --- | --- | --- | --- | --- | --- | --- | --- |
| CCCCCCCN1C(C)=CS\C1=C/C=C(/C=C/c1scc(C)[n+]1CCCCCCC)c1scc(C)[n+]1CCCCCCC [Chemical Formula 2] | 54 mg/kg body weight | 1.5 g/kg body weight |  |  |  |  |  |  |  |  |
| CCN1C=CC(=CC=C(C=Cc2cc[n+](CC)c3ccccc23)c2cc[n+](CC)c3ccccc23)c2ccccc21 [NK-4] |  |  | 1.2 IU/ml | 2.2 IU/ml | 2.3 IU/ml | sevenfold | 2.8 IU/ml | did not cause any serious side effect | good conditions of hair complexion, appetite, and motility | did not die |

Reference: US20080064722A1, “AGENT FOR PROMOTING INTERFERON-Y PRODUCTION” (KABUSHIKI KAISHA HAYAHIBARA SEIBUTSU KAGAKU KENKYU, priority 2001, published 2008)
